Data reported in patent EP4729061A1, “USE OF AKT INHIBITOR IN PREPARATION OF DRUG FOR PREVENTING OR TREATING BREAST CANCER” (Nanjing Chia Tai Tianqing Pharmaceutical Co., Ltd., priority 2023, dated 2024).
Read-outs that look alike come from different tables or passages of the source.

Tests used:
[1] = system: MCF-7 human breast cancer subcutaneous xenograft model; experiment: Tumor inhibition in subcutaneous xenograft model; type: in vivo, female BALB/c nude mice; settings: the compound of Formula (A) 25 mg/kg p.o. QD, Fulvestrant 5 mg/mouse s.c. QW; for Body weight Post 28 Days of Treatment: mean ± standard error; for Body weight Post 28 Days of Treatment / Tumor Volume 28 Days After Administration: n=12, x 4 weeks; for Tumor Volume 28 Days After Administration: tumor volume at grouping 204 ± 6, P <0.001 vs control; for T/C: relative tumor volume increase ratio; for T/C / TGI: day 28; for TGI: tumor growth inhibition rate
Source text: The purpose of this study is to evaluate the therapeutic efficacy of the compound of Formula (A) in combination with fulvestrant in the MCF-7 human breast cancer subcutaneous xenograft model in female BALB/c nude mice.
BALB/c nude mice, 6-8 weeks old, female, weighing 18-20 g, were purchased from Beijing Anikeeper Biotech Co., Ltd.. The feeding environment was SPF-grade, the temperature is (23±3)°C and the humidity is 40-70%.
Solvent for the compound of Formula (A): 1,2-Propanediol (PG) : 50% Solutol HS-15 : 0.5% Hydroxypropyl Methylcellulose (HPMC) = 2 : 1 : 7.
Compound preparation methods
MCF-7 tumor cells were cultured in DMEM medium containing inactivated 15% fetal bovine serum, 100 U/mL penicillin, and 100 µg/mL streptomycin in an incubator at 37°C with 5% CO2. Tumor cells in the logarithmic growth phase were used for in vivo tumor inoculation.
One day before the inoculation of MCF-7 tumor cells, the mice were subcutaneously implanted with an estrogen tablet (0.5 mg, 90-day release period) on the left side. MCF-7 tumor cells resuspended in serum-free DMEM medium were inoculated subcutaneously into the right costal region of the experimental animals at a density of 1.5 × 10^7 cells (0.2 mL + Matrigel), with a total of 72 animals inoculated. When the tumors grew to approximately 204 mm^3, 48 animals with relatively uniform tumor volumes were selected for grouping and administration, divided into 4 groups, and administered according to the dosing schedule. Table 8. Compounds administration schedule
Tumor volume was measured twice a week using a vernier caliper. The long diameter and short diameter of the tumor were measured, and the volume was calculated using the formula: Volume = 0.5×long diameter×short diameter^2.
While measuring the tumor volume, the body weight of the mice was weighed. The relationship between the changes in the mice's body weight and the administration time was recorded. Meanwhile, the survival status and health conditions of the mice were observed, such as their general states including activity and food intake during the administration period.
Tumor Growth Inhibition Rate(TGI,%) = (1−T/C) × 100 [formula]
Statistical analysis of tumor volume between groups was performed using the statistical software SPSS 16.0 and One-Way ANOVA test. A p-value < 0.05 was considered statistically significant.

[2] = Plasma pharmacokinetics in the xenograft mice on day 28 of treatment; type: in vivo, female BALB/c nude mice; settings: for AUC(0-inf) / AUC(0-t) / Cmax / Tmax / half-life / MRT inf: female, BALB/c nude; for MRT inf: read-out: MRTInf_obs
Source text: The purpose of this study was to evaluate the therapeutic efficacy of the compound of Formula (A) in combination with fulvestrant in the MCF-7 human breast cancer subcutaneous xenograft model in female BALB/c nude mice.
On the 28th day of treatment for the mice in Experiment 2, animal plasma was continuously collected for PK detection, with a total of 112 plasma samples and 16 tumor samples. PK sample sampling protocol

[3] = sc, analyte: fulvestrant in plasma, 5 mg/mouse s.c. alone (G3) or + the compound of Formula (A) 25 mg/kg (G4)
[4] = po, analyte: the compound of Formula (A) in plasma, 25 mg/kg p.o. alone (G2) or + Fulvestrant 5 mg/mouse (G4)

Compound	Body weight Post 28 Days of Treatment [1]	Tumor Volume 28 Days After Administration [1]	T/C [1]	TGI [1]	AUC%Extrap_obs ([2]; analyte: fulvestrant in plasma, 5 mg/mouse s.c. alone (G3) or + the compound of Formula (A) 25 mg/kg (G4))	AUC(0-inf) [2, 3]	AUC(0-t) [2, 3]	Cmax [2, 3]	Tmax [2, 3]	half-life [2, 3]	MRT inf [2, 3]	AUC%Extrap_obs ([2]; analyte: the compound of Formula (A) in plasma, 25 mg/kg p.o. alone (G2) or + Fulvestrant 5 mg/mouse (G4))	AUC(0-inf) [2, 4]	AUC(0-t) [2, 4]	Cmax [2, 4]	Tmax [2, 4]	half-life [2, 4]	MRT inf [2, 4]
C[C@]12CC[C@@H]3c4ccc(O)cc4C[C@@H](CCCCCCCCC[S+]([O-])CCCC(F)(F)C(F)(F)F)[C@H]3[C@@H]1CC[C@@H]2O (stereo partly shown) [Fulvestrant, reference compound]	25.9 ± 0.3 g	546 ± 54 mm^3	46.9%	53.1%	12.6%	6.61 µg·h/mL	5.78 µg·h/mL	0.268 µg/mL	0.375 h	23.6 h	37.7 h	–	–	–	–	–	–	–
CC(C)NC[C@@H](C(=O)N1CCN(c2ncnc3c2[C@H](C)CC(=O)N3)[C@H]2C[C@H]21)c1ccc(Cl)cc1 [The compound of Formula (A), (R)-4-((1S,6R)-5-((S)-2-(4-chlorophenyl)-3-(isopropylamino)propanoyl)-2,5-diazabicyclo[4.1.0]heptan-2-yl)-5-methyl-5,8-dihydropyrido[2,3-d]pyrimidin-7(6H)-one]	23.8 ± 0.5 g	684 ± 65 mm^3	58.4%	41.6%	–	–	–	–	–	–	–	1.48%	18.8 µg·h/mL	18.5 µg·h/mL	1.34 µg/mL	2.75 h	7.93 h	10.5 h
